From ChEMBL document CHEMBL5537176, “Discovery of Novel Pyridazine-Tethered Sulfonamides as Carbonic Anhydrase II Inhibitors for the Management of Glaucoma” (J Med Chem, 2024)

Molecular target: Carbonic anhydrase 9 (Homo sapiens, UniProt Q16790)
Test: Inhibition of human CA IX assessed as inhibition constant by stopped-flow CO2 hydrase assay method

**Q.** `COc1cc2c(cc1OC)-c1c(c(C(=O)Nc3ccc(S(N)(=O)=O)cc3)nn1C)C2` was tested. Which Ki did it give?
**A.** 3.2 nM
